Source: ChEMBL document CHEMBL4649995, “Discovery of a PCAF Bromodomain Chemical Probe” (Angew Chem Int Ed Engl, 2017)

Key:
Conditions in all cases: Compound concentration 10.0 uM, Protein concentration 2.0 uM
[1] = target: Transcription intermediary factor 1-alpha (Homo sapiens) (UniProt O15164)
[2] = target: Transcription initiation factor TFIID subunit 1-like (Homo sapiens) (UniProt Q8IZX4)
[3] = target: Tyrosine-protein kinase BAZ1B (Homo sapiens) (UniProt Q9UIG0)
[4] = target: Histone-lysine N-methyltransferase ASH1L (Homo sapiens) (UniProt Q9NR48)
Peregrin (Homo sapiens) [5] = target: Peregrin (Homo sapiens) (UniProt P55201)
[6] = target: CREB-binding protein (Homo sapiens) (UniProt Q92793)
[7] = target: SWI/SNF-related matrix-associated actin-dependent regulator of chromatin subfamily A member 2 (Homo sapiens) (UniProt P51531)
[8] = target: ATPase family AAA domain-containing protein 2B (Homo sapiens) (UniProt Q9ULI0)
[9] = target: Bromodomain-containing protein 4 (Homo sapiens) (UniProt O60885)
[10] = target: Protein polybromo-1 (Homo sapiens) (UniProt Q86U86)
[11] = target: Transcription initiation factor TFIID subunit 1 (Homo sapiens) (UniProt P21675)
[12] = target: Transcription initiation factor TFIID subunit 1 (Homo sapiens) (UniProt P21675); remark: listed apart in the source
[13] = target: Bromodomain-containing protein 9 (Homo sapiens) (UniProt Q9H8M2)
[14] = target: Histone acetyltransferase KAT2A (Homo sapiens) (UniProt Q92830)
[15] = target: Protein polybromo-1 (Homo sapiens) (UniProt Q86U86); remark: listed apart in the source
[16] = target: Bromodomain adjacent to zinc finger domain protein 2B (Homo sapiens) (UniProt Q9UIF8)
[17] = target: Bromodomain-containing protein 1 (Homo sapiens) (UniProt O95696)
[18] = target: Bromodomain-containing protein 4 (Homo sapiens) (UniProt O60885); remark: listed apart in the source
[19] = target: Bromodomain adjacent to zinc finger domain protein 1A (Homo sapiens) (UniProt Q9NRL2)
[20] = target: Bromodomain and WD repeat-containing protein 1 (Homo sapiens) (UniProt Q9NSI6)
[21] = target: SWI/SNF-related matrix-associated actin-dependent regulator of chromatin subfamily A member 4 (Homo sapiens) (UniProt P51532)
[22] = target: Histone acetyltransferase p300 (Homo sapiens) (UniProt Q09472)
[23] = target: Bromodomain-containing protein 7 (Homo sapiens) (UniProt Q9NPI1)
[24] = target: Protein polybromo-1 (Homo sapiens) (UniProt Q86U86); remark: listed apart in the source
Peregrin (Homo sapiens) [25] = target: Peregrin (Homo sapiens) (UniProt P55201); remark: listed apart in the source
[26] = target: Nucleosome-remodeling factor subunit BPTF (Homo sapiens) (UniProt Q12830)
[27] = target: Chromatin remodeling regulator CECR2 (Homo sapiens) (UniProt Q9BXF3)
[28] = target: Protein polybromo-1 (Homo sapiens) (UniProt Q86U86); remark: listed apart in the source
[29] = target: Bromodomain and PHD finger-containing protein 3 (Homo sapiens) (UniProt Q9ULD4)
[30] = target: Transcription initiation factor TFIID subunit 1-like (Homo sapiens) (UniProt Q8IZX4); remark: listed apart in the source
[31] = target: Bromodomain-containing protein 2 (Homo sapiens) (UniProt P25440)
[32] = target: Nuclear body protein SP140 (Homo sapiens) (UniProt Q13342)
[33] = target: Bromodomain adjacent to zinc finger domain protein 2A (Homo sapiens) (UniProt Q9UIF9)
[34] = target: Bromodomain and WD repeat-containing protein 3 (Homo sapiens) (UniProt Q6RI45)
[35] = target: Bromodomain-containing protein 2 (Homo sapiens) (UniProt P25440); remark: listed apart in the source
[36] = target: PH-interacting protein (Homo sapiens) (UniProt Q8WWQ0)
[37] = target: Nuclear body protein SP140-like protein (Homo sapiens) (UniProt Q9H930)
[38] = target: Histone-lysine N-methyltransferase 2A (Homo sapiens) (UniProt Q03164)
[39] = target: Bromodomain testis-specific protein (Homo sapiens) (UniProt Q58F21)
[40] = target: Transcription intermediary factor 1-alpha (Homo sapiens) (UniProt O15164); remark: listed apart in the source
[41] = target: Protein polybromo-1 (Homo sapiens) (UniProt Q86U86); remark: listed apart in the source
[42] = target: Bromodomain-containing protein 3 (Homo sapiens) (UniProt Q15059)
[43] = target: Bromodomain testis-specific protein (Homo sapiens) (UniProt Q58F21); remark: listed apart in the source
[44] = target: ATPase family AAA domain-containing protein 2 (Homo sapiens) (UniProt Q6PL18)
[45] = target: Protein polybromo-1 (Homo sapiens) (UniProt Q86U86); remark: listed apart in the source
[46] = target: Transcription intermediary factor 1-beta (Homo sapiens) (UniProt Q13263)
[47] = target: Bromodomain-containing protein 3 (Homo sapiens) (UniProt Q15059); remark: listed apart in the source

Protein polybromo-1 (Homo sapiens), sequence (Q86U86 whole entry, the tested form may be a part): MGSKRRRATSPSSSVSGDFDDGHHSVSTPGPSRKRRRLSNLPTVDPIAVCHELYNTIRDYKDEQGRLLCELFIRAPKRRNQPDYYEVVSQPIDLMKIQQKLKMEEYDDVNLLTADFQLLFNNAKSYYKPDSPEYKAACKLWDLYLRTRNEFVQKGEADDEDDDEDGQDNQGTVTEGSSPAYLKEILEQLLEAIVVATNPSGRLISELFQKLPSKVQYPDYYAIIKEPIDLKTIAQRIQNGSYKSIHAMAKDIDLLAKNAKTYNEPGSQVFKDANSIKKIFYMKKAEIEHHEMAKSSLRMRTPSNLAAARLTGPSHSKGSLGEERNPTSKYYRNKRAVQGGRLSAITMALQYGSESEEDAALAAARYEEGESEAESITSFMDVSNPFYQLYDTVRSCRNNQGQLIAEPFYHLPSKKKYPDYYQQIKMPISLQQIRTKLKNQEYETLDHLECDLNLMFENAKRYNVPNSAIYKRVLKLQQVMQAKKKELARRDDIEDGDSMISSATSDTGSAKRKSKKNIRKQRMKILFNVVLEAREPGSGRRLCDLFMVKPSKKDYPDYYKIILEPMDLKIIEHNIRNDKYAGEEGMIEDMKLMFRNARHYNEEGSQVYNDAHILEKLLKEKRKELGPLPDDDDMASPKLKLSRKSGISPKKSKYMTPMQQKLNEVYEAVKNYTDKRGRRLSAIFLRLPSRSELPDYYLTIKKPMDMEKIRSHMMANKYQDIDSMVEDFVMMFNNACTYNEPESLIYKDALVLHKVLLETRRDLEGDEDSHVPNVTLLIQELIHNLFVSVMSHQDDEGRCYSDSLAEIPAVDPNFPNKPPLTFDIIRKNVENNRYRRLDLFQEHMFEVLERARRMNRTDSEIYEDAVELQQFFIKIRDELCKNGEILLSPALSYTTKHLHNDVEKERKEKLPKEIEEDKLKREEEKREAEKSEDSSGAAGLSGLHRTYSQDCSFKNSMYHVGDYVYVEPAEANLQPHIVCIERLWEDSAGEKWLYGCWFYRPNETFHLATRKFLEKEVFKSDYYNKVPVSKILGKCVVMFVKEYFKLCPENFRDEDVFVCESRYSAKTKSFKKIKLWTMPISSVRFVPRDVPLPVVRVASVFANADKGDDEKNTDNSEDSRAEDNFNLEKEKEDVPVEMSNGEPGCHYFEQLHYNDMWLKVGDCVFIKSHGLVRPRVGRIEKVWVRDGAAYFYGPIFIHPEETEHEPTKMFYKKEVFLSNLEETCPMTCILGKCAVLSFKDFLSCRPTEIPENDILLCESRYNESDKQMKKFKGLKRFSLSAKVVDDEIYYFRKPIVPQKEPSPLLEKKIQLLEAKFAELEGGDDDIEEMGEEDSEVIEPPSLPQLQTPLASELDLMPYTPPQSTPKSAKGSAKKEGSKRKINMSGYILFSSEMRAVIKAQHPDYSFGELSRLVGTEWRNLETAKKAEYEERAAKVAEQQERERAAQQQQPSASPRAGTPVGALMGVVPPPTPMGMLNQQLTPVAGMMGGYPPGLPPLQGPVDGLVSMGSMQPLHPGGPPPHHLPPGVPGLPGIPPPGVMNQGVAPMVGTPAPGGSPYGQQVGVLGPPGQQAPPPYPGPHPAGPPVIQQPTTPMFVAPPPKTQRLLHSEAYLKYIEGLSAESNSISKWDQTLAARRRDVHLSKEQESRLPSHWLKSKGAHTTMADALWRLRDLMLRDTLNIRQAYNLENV
Transcription initiation factor TFIID subunit 1-like (Homo sapiens), sequence (Q8IZX4 whole entry): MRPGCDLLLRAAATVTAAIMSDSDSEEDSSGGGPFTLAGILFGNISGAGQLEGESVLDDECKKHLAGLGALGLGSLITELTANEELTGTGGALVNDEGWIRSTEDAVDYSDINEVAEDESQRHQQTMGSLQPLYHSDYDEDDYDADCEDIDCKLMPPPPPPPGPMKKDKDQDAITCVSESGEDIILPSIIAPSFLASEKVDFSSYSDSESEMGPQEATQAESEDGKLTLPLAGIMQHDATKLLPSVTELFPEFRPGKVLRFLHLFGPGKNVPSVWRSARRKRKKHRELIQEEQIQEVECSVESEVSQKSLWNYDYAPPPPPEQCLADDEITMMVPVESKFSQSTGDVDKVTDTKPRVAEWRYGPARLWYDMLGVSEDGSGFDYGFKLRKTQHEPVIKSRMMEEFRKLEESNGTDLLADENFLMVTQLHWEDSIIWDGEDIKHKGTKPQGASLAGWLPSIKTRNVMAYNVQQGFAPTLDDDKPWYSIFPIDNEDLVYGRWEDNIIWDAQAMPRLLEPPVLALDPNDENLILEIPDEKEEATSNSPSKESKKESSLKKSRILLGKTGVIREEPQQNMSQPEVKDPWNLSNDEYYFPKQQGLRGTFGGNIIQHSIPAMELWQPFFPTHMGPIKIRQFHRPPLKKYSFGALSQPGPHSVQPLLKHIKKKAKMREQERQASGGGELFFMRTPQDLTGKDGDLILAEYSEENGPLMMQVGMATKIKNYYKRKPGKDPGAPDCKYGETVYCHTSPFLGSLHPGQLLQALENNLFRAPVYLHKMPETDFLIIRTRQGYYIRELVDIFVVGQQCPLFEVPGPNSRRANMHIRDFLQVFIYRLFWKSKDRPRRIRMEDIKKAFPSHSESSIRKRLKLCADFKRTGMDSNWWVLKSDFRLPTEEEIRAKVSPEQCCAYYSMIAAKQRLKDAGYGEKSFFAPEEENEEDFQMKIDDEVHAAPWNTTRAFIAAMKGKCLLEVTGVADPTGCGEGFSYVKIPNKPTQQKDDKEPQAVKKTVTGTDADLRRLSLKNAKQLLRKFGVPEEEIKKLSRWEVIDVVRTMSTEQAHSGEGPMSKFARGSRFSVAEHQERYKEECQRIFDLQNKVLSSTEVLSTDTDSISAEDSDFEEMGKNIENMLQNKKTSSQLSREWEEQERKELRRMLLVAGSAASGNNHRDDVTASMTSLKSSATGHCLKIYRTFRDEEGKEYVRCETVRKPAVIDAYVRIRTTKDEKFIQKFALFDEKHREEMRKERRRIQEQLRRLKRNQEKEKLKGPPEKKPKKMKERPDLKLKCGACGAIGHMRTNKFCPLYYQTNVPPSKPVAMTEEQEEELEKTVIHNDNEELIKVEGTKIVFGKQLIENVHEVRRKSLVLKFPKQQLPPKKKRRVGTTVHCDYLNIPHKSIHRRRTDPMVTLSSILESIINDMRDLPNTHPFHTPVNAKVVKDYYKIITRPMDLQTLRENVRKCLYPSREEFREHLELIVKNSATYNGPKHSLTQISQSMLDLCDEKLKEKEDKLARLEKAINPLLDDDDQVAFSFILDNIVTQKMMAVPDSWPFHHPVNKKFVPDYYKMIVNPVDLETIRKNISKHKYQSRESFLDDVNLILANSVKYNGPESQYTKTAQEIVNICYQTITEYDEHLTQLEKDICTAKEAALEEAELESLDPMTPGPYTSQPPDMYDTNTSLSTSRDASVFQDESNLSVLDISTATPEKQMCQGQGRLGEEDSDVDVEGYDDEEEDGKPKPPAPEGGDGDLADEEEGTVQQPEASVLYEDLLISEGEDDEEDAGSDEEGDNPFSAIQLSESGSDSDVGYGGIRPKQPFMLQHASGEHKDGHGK
Bromodomain-containing protein 3 (Homo sapiens), sequence (Q15059 2-726 limits assumed): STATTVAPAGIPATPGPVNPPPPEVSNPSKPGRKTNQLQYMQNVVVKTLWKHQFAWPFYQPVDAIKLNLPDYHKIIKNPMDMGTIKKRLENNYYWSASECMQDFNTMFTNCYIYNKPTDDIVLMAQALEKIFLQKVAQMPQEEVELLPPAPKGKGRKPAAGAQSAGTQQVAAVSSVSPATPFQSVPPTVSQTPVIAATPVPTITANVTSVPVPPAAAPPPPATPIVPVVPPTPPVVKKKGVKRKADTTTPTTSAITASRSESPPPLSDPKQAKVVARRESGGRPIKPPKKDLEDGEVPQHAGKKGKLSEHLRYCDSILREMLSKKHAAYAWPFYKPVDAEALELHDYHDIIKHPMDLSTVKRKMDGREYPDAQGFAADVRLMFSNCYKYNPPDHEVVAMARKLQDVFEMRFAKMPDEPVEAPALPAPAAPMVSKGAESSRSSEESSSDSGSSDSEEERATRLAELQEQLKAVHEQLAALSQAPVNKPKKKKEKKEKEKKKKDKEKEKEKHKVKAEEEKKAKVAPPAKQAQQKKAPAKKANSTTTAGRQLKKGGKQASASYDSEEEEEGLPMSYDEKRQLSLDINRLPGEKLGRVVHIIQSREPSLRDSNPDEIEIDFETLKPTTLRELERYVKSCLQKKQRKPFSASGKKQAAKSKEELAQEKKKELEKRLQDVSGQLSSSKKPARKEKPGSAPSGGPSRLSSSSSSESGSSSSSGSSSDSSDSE
Bromodomain-containing protein 2 (Homo sapiens), sequence (P25440 whole entry, looked up): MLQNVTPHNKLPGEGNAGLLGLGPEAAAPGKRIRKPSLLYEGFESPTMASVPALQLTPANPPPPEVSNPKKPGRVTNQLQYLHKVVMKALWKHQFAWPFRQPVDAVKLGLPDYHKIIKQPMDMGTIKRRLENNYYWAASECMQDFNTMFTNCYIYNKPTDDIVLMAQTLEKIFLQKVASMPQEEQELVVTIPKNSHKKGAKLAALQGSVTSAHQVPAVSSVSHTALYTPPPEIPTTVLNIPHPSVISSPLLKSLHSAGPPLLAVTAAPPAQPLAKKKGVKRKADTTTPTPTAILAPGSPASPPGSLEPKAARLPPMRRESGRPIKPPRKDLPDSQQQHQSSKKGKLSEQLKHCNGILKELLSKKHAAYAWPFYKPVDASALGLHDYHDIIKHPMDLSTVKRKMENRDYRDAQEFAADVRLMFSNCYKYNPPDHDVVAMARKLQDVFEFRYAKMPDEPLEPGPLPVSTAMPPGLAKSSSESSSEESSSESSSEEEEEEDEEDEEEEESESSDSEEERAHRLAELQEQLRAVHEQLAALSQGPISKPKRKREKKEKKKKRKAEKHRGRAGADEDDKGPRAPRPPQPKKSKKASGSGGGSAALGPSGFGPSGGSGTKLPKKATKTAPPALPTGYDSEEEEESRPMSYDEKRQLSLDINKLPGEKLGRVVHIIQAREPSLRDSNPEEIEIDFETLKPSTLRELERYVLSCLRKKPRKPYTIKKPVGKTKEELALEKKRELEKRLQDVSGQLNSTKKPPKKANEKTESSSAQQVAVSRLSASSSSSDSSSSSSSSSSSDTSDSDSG

## Cc1nnc2c3ccccc3c(N[C@@H](C)[C@H](c3ccccc3)N(C)C)nn12
[1]
  ΔTm: 0.77 °C
[2]
  ΔTm: 0.33 °C
[3]
  ΔTm: 0.72 °C
[4]
  ΔTm: 0.62 °C
Peregrin (Homo sapiens) [5]
  ΔTm: 1.19 °C
[6]
  ΔTm: 0.95 °C
[7]
  ΔTm: 0.51 °C
[8]
  ΔTm: 0.61 °C
[9]
  ΔTm: 0.1 °C
[10]
  ΔTm: 0.43 °C
[11]
  ΔTm: 0.42 °C
[12]
  ΔTm: 0.5 °C
[13]
  ΔTm: 0.56 °C
[14]
  ΔTm: 3.75 °C
[15]
  ΔTm: 0.26 °C
[16]
  ΔTm: 0.67 °C
[17]
  ΔTm: -0.26 °C
[18]
  ΔTm: 0.39 °C
[19]
  ΔTm: 1.31 °C
[20]
  ΔTm: 2 °C
[21]
  ΔTm: 0.42 °C
[22]
  ΔTm: 0.86 °C
[23]
  ΔTm: -0.07 °C
[24]
  ΔTm: 0.13 °C
Peregrin (Homo sapiens) [25]
  ΔTm: 1.03 °C
[26]
  ΔTm: 0.08 °C
[27]
  ΔTm: 0.63 °C
[28]
  ΔTm: 0.1 °C
[29]
  ΔTm: 0.78 °C
[30]
  ΔTm: 0.67 °C
[31]
  ΔTm: -0.06 °C
[32]
  ΔTm: 0.09 °C
[33]
  ΔTm: 0.1 °C
[34]
  ΔTm: 2.16 °C
[35]
  ΔTm: 0.23 °C
[36]
  ΔTm: -0.82 °C
[37]
  ΔTm: 0.94 °C
[38]
  ΔTm: 1.14 °C
[39]
  ΔTm: 0.72 °C
[40]
  ΔTm: 0.69 °C
[41]
  ΔTm: 0.65 °C
[42]
  ΔTm: 0.26 °C
[43]
  ΔTm: -2.19 °C
[44]
  ΔTm: 1.18 °C
[45]
  ΔTm: 0.75 °C
[46]
  ΔTm: 0.5 °C
[47]
  ΔTm: 0.13 °C
